Assay results as given in patent US8936807B2, “Use of the cathelicidin LL-37 and derivatives thereof for wound healing” (Lipopeptide AB, priority 2003, dated 2015).

Experiments:
Assay type in all cases: cell-based, human
HaCat cells [1] = assay: Proliferation of HaCat cells assessed by flowcytometry and Trypan-Blue; details: EGF 1.7 nM, 10% serum
Protocol: HaCat cells were used for these experiments. HaCat cells are an immortalized human keratinocyte cell line (Boukamp et al., J Cell Biol 106:761-771, 1988), which is suitable for experimental keratinocyte research. HaCat cells were cultured in medium (DMEM, +10% FCS and PEST). Both types of cell cultures were treated with synthetic, bioactive LL-37 (lot YS 5253). […] Cells were harvested at different time-points (24 h, 48 h, 72 h and 96 h) and counted by flowcytometry (Becton-Dickinson) and stained by Trypan-Blue to evaluate viability. […] Proliferation and viability were also ascertained by measuring mitochondrial activity (WST-1, Roche, Cook et al. Anal Biochem 179:1-7, 1989).

HaCat cells [2] = assay: Proliferation and viability of HaCat cells measured by mitochondrial activity (WST-1); details: EGF 1.7 nM, 10% serum, 48 h
Protocol: HaCat cells were used for these experiments. HaCat cells are an immortalized human keratinocyte cell line (Boukamp et al., J Cell Biol 106:761-771, 1988), which is suitable for experimental keratinocyte research. HaCat cells were cultured in medium (DMEM, +10% FCS and PEST). Both types of cell cultures were treated with synthetic, bioactive LL-37 (lot YS 5253). In addition a mixture of LL-37 (114 μg/ml) and CPL-Galactolipid (0.2%) in medium containing serum at either 2 or 10% was added to evaluate the capacity to increase proliferation and inhibit cytotoxicity. Cells were harvested at different time-points (24 h, 48 h, 72 h and 96 h) and counted by flowcytometry (Becton-Dickinson) and stained by Trypan-Blue to evaluate viability. […] Proliferation and viability were also ascertained by measuring mitochondrial activity (WST-1, Roche, Cook et al. Anal Biochem 179:1-7, 1989).

HaCat cells [3] = assay: Proliferation of HaCat cells assessed by 3H-Thymidine incorporation; details: 10% serum, 96 Hours; for Increased Proliferation (%): vs control 0 μg/ml
Protocol: HaCat cells were cultured in medium (DMEM, +10% FCS and PEST). HaCaT cells were plated in 96 well plates (Falcon, USA) at the concentration of 2000 cells per well. Cells were plated at −48 hours and stimulated with different concen-trations of synthetic LL-37, LL-36, and LL-38 peptide by hour 0 and after 48 hours.
The testing was done in one experiment with 6 wells in each condition. […] of ^3H-Thymidine (THYMIDINE, [METHYL-^3H]-740.0 GBq/mmol (20.00 Ci/mmol) 1.0 ml of Ethanol:Water, 7:3, Perkin Elmer Life Sciences Inc. Boston Mass., USA) was added to each well and incubated for 12-17 hours. Proliferation was evaluated by ^3H-Thymidine incorporation a liquid scintilator (MicroBeta Perkin Elmer Life Sciences Inc. Boston Mass., USA) after 72 and 96 hours.

EGF: EGF, the golden standard for epithelial cell proliferation, used at 1.7 nM [reference compound]
Number of Cells (Mean) (HaCat cells [1]; 96 h): 42000 | Increased Proliferation (%) (HaCat cells [1]; 96 h, vs baseline (-EGF)): 30% | Number of Cells (Mean) (HaCat cells [1]; no lipid, 72 h): 85050 | Increased Proliferation (%) (HaCat cells [1]; no lipid, 72 h, vs baseline): 54% | Number of Cells (Mean) (HaCat cells [1]; with lipid 0.2%, 72 h): 87640 | Increased Proliferation (%) (HaCat cells [1]; with lipid 0.2%, 72 h, vs baseline): 58% | Absorbance (HaCat cells [2]): 1.107 | Increased Proliferation (%) (HaCat cells [2]; vs baseline (-EGF)): 77%

LLGDFFRKSKEKIGKEFKRIVQRIKDFLRNLVPRTE (Synthetic Peptide LL-36)
Counts Per Minute (Mean) (HaCat cells [3]; LL-36 1.00 μg/ml): 86253 Counts Per Minute | Increased Proliferation (%) (HaCat cells [3]; LL-36 1.00 μg/ml): 24% | Counts Per Minute (Mean) (HaCat cells [3]; LL-36 5.00 μg/ml): 116381 Counts Per Minute | Increased Proliferation (%) (HaCat cells [3]; LL-36 5.00 μg/ml): 68% | Counts Per Minute (Mean) (HaCat cells [3]; LL-36 10.00 μg/ml): 70157 Counts Per Minute | Increased Proliferation (%) (HaCat cells [3]; LL-36 10.00 μg/ml): 1% | Counts Per Minute (Mean) (HaCat cells [3]; LL-36 25.00 μg/ml): 72674 Counts Per Minute | Increased Proliferation (%) (HaCat cells [3]; LL-36 25.00 μg/ml): 5% | Counts Per Minute (Mean) (HaCat cells [3]; LL-36 50.00 μg/ml): 68560 Counts Per Minute | Increased Proliferation (%) (HaCat cells [3]; LL-36 50.00 μg/ml): -1%

LLGDFFRKSKEKIGKEFKRIVQRIKDFLRNLVPRTESS (Synthetic Peptide LL-38)
Counts Per Minute (Mean) (HaCat cells [3]; LL-38 1.00 μg/ml): 82008 Counts Per Minute | Increased Proliferation (%) (HaCat cells [3]; LL-38 1.00 μg/ml): 4% | Counts Per Minute (Mean) (HaCat cells [3]; LL-38 5.00 μg/ml): 68694 Counts Per Minute | Increased Proliferation (%) (HaCat cells [3]; LL-38 5.00 μg/ml): −13% | Counts Per Minute (Mean) (HaCat cells [3]; LL-38 10.00 μg/ml): 57293 Counts Per Minute | Increased Proliferation (%) (HaCat cells [3]; LL-38 10.00 μg/ml): −28% | Counts Per Minute (Mean) (HaCat cells [3]; LL-38 25.00 μg/ml): 54294 Counts Per Minute | Increased Proliferation (%) (HaCat cells [3]; LL-38 25.00 μg/ml): −31% | Counts Per Minute (Mean) (HaCat cells [3]; LL-38 50.00 μg/ml): 48701 Counts Per Minute | Increased Proliferation (%) (HaCat cells [3]; LL-38 50.00 μg/ml): −39%
